According to patent publication US20250051694A1, “BAR COMPOSITION HAVING ENHANCED ANTIMICROBIAL ACTIVITY” (Conopco, Inc., d/b/a UNILEVER, priority 2021, published 2025):

Test system: S. aureus ATCC 6538
Assay: Time-kill assay (adapted from ASTM E2315-16), Gram positive
Assay type: cell-based
Settings: Table II, simulated 10% slurry
Protocol: Aqueous slurries were prepared whereby gratings from the bars made in the Samples of Table I were mixed with water to form a test solution containing 10% by weight of the initial bar component. In the second method, raw bar components, as depicted in the Samples in Table II, were mixed with water to form a test solution containing a total of 10% raw bar component to simulate an aqueous slurry of a bar composition. For each sample, aqueous slurries were mixed at 50° C. to simulate customary consumer washing conditions.
As to the microbes, E. coli ATCC 10536 and S. aureus ATCC 6538 were used in this study to represent Gram negative and Gram positive bacteria, respectively. The bacteria were stored at −80° C. Fresh isolates were cultured twice on Tryptic Soy Agar plates for 24 hours at 37° C. before each experiment.
Test solutions were prepared. In the first method and for the aqueous slurries made from the bar compositions described in Table I, a composition (typically containing up to 15% surfactant) was mixed with water to form a test solution containing 10% weight percent of the initial formulation. In the second method and for the raw ingredients combined in Table II, the same were mixed with water at levels that simulate a 10% dilution of the slurries. In each assessment, test solutions were heated and mixed at […]
The log reduction was calculated using the formula: […]

## CC(O)C(=O)O (stereo not shown) [lactic acid]
  S. aureus Log Reduction (46° C., 30 sec): performed poorly
